Earlier results as cited in US5399700A, “Method for preparing enteric-coated oral drugs containing acid-unstable compounds” (Sunkyong Industries Co., Ltd., priority 1991, dated 1995).
Where two headings read alike, the source gives them in different places. One block for each compound: values may come before it.

Assays:
[1] = Table 9
[2] = not given; remark: listed apart in the source

SMILES: CCCCN(CCCC)CCCC [Tributylamine]
pKa [1]: 10.87

SMILES: CC(C)CN [Isobutylamine]
pKa [1]: 10.42

SMILES: CC(C)(C)N [Tert-butylamine]
pKa [1]: 10.87

SMILES: CCCN [Propylamine]
pKa [1]: 10.57

SMILES: COc1ccc2[nH]c([S+]([O-])Cc3ncc(C)c(OC)c3C)nc2c1 (stereo not shown) [omeprazole]
half-life ([2]; medium of below pH 4): 0.167 h | half-life ([2]; pH 6.8): 18 h | half-life ([2]; pH 11): about 300 days

Next, values leading:

Ring-opening Half-life (1n hcl): 6.2 h
SMILES: OC[C@H]1O[C@@H]2O[C@H]3[C@H](O)[C@@H](O)[C@@H](O[C@H]4[C@H](O)[C@@H](O)[C@@H](O[C@H]5[C@H](O)[C@@H](O)[C@@H](O[C@H]6[C@H](O)[C@@H](O)[C@@H](O[C@H]7[C@H](O)[C@@H](O)[C@@H](O[C@H]1[C@H](O)[C@H]2O)O[C@@H]7CO)O[C@@H]6CO)O[C@@H]5CO)O[C@@H]4CO)O[C@@H]3CO [α-CD, α-cyclodextrin]

Ring-opening Half-life (60° C., 1N HCl): 3.0 h
SMILES: OC[C@H]1O[C@@H]2O[C@H]3[C@H](O)[C@@H](O)[C@@H](O[C@H]4[C@H](O)[C@@H](O)[C@@H](O[C@H]5[C@H](O)[C@@H](O)[C@@H](O[C@H]6[C@H](O)[C@@H](O)[C@@H](O[C@H]7[C@H](O)[C@@H](O)[C@@H](O[C@H]8[C@H](O)[C@@H](O)[C@@H](O[C@H]9[C@H](O)[C@@H](O)[C@@H](O[C@H]1[C@H](O)[C@H]2O)O[C@@H]9CO)O[C@@H]8CO)O[C@@H]7CO)O[C@@H]6CO)O[C@@H]5CO)O[C@@H]4CO)O[C@@H]3CO [γ-CD]

Ring-opening Half-life (60° C., 1N HCl): 5.4 h
SMILES: OC[C@H]1O[C@@H]2O[C@H]3[C@H](O)[C@@H](O)[C@@H](O[C@H]4[C@H](O)[C@@H](O)[C@@H](O[C@H]5[C@H](O)[C@@H](O)[C@@H](O[C@H]6[C@H](O)[C@@H](O)[C@@H](O[C@H]7[C@H](O)[C@@H](O)[C@@H](O[C@H]8[C@H](O)[C@@H](O)[C@@H](O[C@H]1[C@H](O)[C@H]2O)O[C@@H]8CO)O[C@@H]7CO)O[C@@H]6CO)O[C@@H]5CO)O[C@@H]4CO)O[C@@H]3CO [β-CD, β-cyclodextrin]
